Source: US5532225A, “Acyclic purine phosphonate nucleotide analogs as antiviral agents, and related synthetic methods” (SRI International, priority 1992, dated 1996)

Key:
human cytomegalovirus = assay: in vitro antiviral evaluation (cytotoxicity and viral cytopathic effect, CPE) in MRC-5 cells; assay type: cell-based; conditions: racemate approximately 50:50 (w/w) of 1-9 and 2-9
Description: The compounds prepared in Examples 1 and 2 were evaluated in vitro as antiviral agents against human cytomegalovirus.
One herpes virus strain employed was Strain McCrae of type 1 herpes (thymidine kinase positive virus) (HSV-1TK^+). This strain was prepared and titered in MA-104 cells and frozen at -90° C. until use. Also used were strain HF (HSV-1TK^-), strain E194 (HSV-2), NJB strain (MCMV), and strain AD169 (HCMV).
Continuous passaged MRC-5 cells obtained from the American Type Culture Collection (Bethesda, Md.) were used for testing of herpes-type virus, with growth medium consisting of Minimum Essential Medium (MEM) supplemented with 0.1% NaHCO3 and […] gentamicin.
To a 96 well microtiter plate containing an established 24 hour monolayer of cells from which the medium has been decanted was added 0.1 mL of varying (one-half log10) concentrations of test compound, which incubated on the cell 15 minutes, after which 0.1 mL of virus in a concentration of 320 cell culture 50% infectious doses (CCID50)/0.1 mL was added. The plate was covered with plastic wrap and incubated at 37° C. The cells were examined microscopically after 72 hours for evidence of cytotoxicity and for viral cytopathic effect (CPE).

several herpes viruses = assay: activity of isolated enantiomer against several herpes viruses (general statement); assay type: cell-based

Nc1nc2c(ncn2CO[C@@H](CO)CCP(=O)(O)O)c(=O)[nH]1 [Compound 2-9, 9-[(R(-)-1-Hydroxymethyl-3-phosphono)-propyl-oxymethyl]guanine]
share of the antiviral activity of the racemate due to the enantiomer (conclusion in words) (human cytomegalovirus): majority of the antiviral activity of the racemate is due to the (R) enantiomer | activity against several herpes viruses (in words) (several herpes viruses): significant activity against several herpes viruses
